In ChEMBL document CHEMBL5723583, “Data for DCP probe BAY-9835” (2024):

Key:
[1] = biological target: A disintegrin and metalloproteinase with thrombospondin motifs 7 (Homo sapiens, UniProt Q9UKP4); experiment: Biochemical enzymatic FRET assay (hADAMTS7) ( FRET substrate, HiLyteFluor-488 DELSSMVLELRGLRT-K(QXL520)-E-NH2 (custom synthesis by Anaspec) was used.)
[2] = biological target: A disintegrin and metalloproteinase with thrombospondin motifs 4 (Homo sapiens, UniProt O75173); experiment: Biochemical enzymatic FRET assay (hADAMTS4) ( FRET substrate, HiLyteFluor-488 DELSSMVLELRGLRT-K(QXL520)-E-NH2 (custom synthesis by Anaspec) was used.)
Chain of A disintegrin and metalloproteinase with thrombospondin motifs 4 (O75173 whole entry): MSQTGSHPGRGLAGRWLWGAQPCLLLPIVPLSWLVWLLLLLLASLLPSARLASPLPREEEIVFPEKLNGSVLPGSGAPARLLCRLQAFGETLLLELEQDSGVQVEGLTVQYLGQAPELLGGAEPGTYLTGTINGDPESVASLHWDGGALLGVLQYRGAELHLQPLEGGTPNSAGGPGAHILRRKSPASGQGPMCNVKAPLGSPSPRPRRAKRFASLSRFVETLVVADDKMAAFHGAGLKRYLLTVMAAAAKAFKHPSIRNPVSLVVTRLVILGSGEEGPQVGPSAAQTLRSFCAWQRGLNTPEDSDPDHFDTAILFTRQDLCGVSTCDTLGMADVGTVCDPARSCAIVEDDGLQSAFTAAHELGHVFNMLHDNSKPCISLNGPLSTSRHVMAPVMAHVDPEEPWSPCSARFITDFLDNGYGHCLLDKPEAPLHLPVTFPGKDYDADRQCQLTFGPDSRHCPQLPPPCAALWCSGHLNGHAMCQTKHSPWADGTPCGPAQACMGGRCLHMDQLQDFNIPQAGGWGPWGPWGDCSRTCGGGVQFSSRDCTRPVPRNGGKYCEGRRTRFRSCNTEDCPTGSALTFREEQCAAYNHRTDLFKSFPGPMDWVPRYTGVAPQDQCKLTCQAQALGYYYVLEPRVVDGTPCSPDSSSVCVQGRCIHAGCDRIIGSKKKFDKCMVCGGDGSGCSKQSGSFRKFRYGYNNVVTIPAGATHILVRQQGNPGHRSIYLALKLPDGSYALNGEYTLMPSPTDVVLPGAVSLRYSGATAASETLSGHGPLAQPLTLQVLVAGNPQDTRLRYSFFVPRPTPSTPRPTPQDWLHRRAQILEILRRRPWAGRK

Chain of A disintegrin and metalloproteinase with thrombospondin motifs 7 (Q9UKP4 whole entry): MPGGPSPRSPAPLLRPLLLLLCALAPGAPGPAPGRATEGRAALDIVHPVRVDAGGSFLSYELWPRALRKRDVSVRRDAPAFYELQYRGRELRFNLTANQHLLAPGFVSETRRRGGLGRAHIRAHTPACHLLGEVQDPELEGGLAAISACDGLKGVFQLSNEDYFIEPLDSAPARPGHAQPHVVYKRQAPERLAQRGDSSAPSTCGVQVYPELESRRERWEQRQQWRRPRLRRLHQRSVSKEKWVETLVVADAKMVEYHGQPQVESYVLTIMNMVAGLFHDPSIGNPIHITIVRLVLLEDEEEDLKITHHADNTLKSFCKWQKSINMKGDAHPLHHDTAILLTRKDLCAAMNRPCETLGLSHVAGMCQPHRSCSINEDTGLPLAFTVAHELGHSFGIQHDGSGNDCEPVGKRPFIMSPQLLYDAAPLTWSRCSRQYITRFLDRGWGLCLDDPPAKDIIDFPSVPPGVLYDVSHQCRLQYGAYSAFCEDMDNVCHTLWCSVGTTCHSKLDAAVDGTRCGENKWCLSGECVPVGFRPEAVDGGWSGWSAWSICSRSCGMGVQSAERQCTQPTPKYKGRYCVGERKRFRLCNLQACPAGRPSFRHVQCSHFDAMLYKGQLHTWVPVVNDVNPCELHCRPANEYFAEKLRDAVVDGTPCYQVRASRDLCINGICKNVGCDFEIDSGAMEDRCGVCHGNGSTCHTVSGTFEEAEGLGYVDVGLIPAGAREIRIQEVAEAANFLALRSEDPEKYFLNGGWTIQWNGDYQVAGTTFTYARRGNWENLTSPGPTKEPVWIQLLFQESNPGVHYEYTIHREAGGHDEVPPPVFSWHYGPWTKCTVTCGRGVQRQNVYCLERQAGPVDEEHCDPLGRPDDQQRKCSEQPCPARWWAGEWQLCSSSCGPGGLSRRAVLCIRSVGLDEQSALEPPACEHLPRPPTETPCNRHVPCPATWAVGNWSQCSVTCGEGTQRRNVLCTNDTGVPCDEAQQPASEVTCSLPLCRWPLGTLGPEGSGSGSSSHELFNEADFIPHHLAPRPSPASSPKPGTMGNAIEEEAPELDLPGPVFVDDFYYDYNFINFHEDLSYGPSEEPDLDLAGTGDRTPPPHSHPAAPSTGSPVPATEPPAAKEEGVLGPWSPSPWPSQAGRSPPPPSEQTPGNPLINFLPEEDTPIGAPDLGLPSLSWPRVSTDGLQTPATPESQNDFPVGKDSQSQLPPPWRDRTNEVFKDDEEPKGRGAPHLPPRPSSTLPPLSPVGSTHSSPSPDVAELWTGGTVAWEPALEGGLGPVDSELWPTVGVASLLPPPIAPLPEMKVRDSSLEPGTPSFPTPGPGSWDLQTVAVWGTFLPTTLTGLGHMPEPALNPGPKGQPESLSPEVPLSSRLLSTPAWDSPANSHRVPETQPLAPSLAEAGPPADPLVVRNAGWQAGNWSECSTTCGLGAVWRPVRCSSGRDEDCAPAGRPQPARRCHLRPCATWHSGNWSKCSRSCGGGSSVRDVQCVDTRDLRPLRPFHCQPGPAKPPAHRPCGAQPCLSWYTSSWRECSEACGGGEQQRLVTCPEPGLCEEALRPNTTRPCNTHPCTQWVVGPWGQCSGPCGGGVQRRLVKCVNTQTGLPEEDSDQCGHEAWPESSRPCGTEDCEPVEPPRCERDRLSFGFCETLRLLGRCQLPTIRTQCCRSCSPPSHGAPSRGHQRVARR

IC50 [1]: 23.4 µM (not active)
IC50 [2]: > 50 µM (not active)
SMILES: Cn1nccc1[C@@]1(CNC(=O)c2ccc(F)cc2-c2ccc(C(F)(F)F)cc2)NC(=O)NC1=O
